Measured values reported in patent US20090281061A1, “Impaired Alleles of Genes Involved in Metabolic Pathways and Methods for Detecting and Using the Same” (The Regents of the University of California, priority 2008, published 2009).

Legend:
[1] = tested on: human MTHFR; test: Cell-free MTHFR enzyme activity assay in crude yeast extract, with heat treatment at 55° C.; format: biochemical; conditions: crude yeast lysate
[2] = target: T1, human MTHFR (Homo sapiens, UniProt P42898); test: as above; format: biochemical; conditions: 55° C., 20 m
T1 construct: made in house; host or cells: Saccharomyces cerevisiae fol3Δ met13Δ, GAL1 promoter, crude extract

Substance	cell-free enzyme activity compared with the major allele [1]	activity retained after heat treatment, of original activity [2]
E429A: common human MTHFR variant, regulatory domain	benign	–
R594Q: common human MTHFR variant, regulatory domain	benign	–
major allele: the most common human MTHFR allele in the population, expressed in yeast	–	about 30%
